The subject of experiment [1] is Dengue virus type 2 strain New Guinea C (NG-C). Briefly: Dengue viral assay (cytopathic effect, Huh-7.5 cells). Conditions: read-out: Dengue NGC EC50. The format is cell-based. Here is the method:
The Dengue virus type 2 strain New Guinea C (NG-C) and the Dengue virus type 4 strain H241 were purchased from ATCC (Manassas, Va.; item numbers VR-1584 and VR-1490, respectively). The Zika virus strain MR766 was purchased from ATCC (item #VR-1838) and the Zika virus strain IbH 30656 was purchased from BEI Resources (Manassas, Va.; item number NR-500066). 24 h prior to dosing, Huh-7.5 cells were plated in 96 well plates at a density of 1.5×10^5/mL in DMEM medium supplemented with 10% fetal bovine serum, 1% HEPES buffer, 1% Penicillin/Streptomycin and 1% non-essential amino acids (all Mediatech, Manassas, Va.). At the day of infection, serially diluted compounds were added to cells and incubated for 24 h. After the end of the 24 h pre-incubation period, cells were infected with either Dengue virus type 2 NG-C, Dengue virus type 4 H241, Zika virus strain MR766 or Zika virus strain IbH 30656. The virus inoculum was selected to cause 80-90% cytopathic effect in four (Zika) to five (Dengue) days. Infected cells were incubated for four to five days at 37° C., 5% CO2. To develop the assay, 100 μL media was replaced with 100 μl CellTiter-Glo® reagent (Promega, Madison, Wis.) and incubated for 10 mins at R.T. Luminescence was measured on a Victor ×3 multi-label plate reader. Potential compound cytotoxicity was determined using uninfected parallel cultures.

In another experiment the test system is Human rhinovirus 1B. Nature of the experiment: Picornavirus / enterovirus assay, HRV 1B (HeLa-OHIO cells). It is filed as cell-based. As to conditions: read-out: HRV 1B EC50.
The mark [2] stands for this setting: Huh7.5, Dengue virus type 2 (NG-C strain).
Where [3] appears, read: Rhinovirus A, HeLa-OHIO cells, 33° C.
Where [4] appears, read: Dengue virus type 2 (NG-C strain).

The EC50 is the midpoint of the concentration-response curve.

Read-outs that look alike come from different tables or passages of the source. A value given as a limit tells only on which side of the number the result lay.

On to `C#C[C@]1(O)[C@H](n2cnc3c(N)ncnc32)O[C@](F)(COC(C)=O)[C@H]1OC(C)=O` [Compound 2, ((2S,3S,4R,5R)-3-acetoxy-5-(6-amino-9H-purin-9-yl)-4-ethynyl-2-fluoro-4-hydroxytetrahydrofuran-2-yl)methyl acetate], for which the EC50 (in experiment [1] (setting [2]); with Human rhinovirus 1B (setting [3])) was less than 3000 nM each time.

Take `C#C[C@]1(O)[C@H](n2cnc3c(N)ncnc32)O[C@](F)(COC(=O)C(C)C)[C@H]1OC(=O)C(C)C` [Compound 3, (2S,3S,4R,5R)-5-(6-amino-9H-purin-9-yl)-4-ethynyl-2-fluoro-4-hydroxy-2-((isobutyryloxy)methyl)tetrahydrofuran-3-ylisobutyrate]: the EC50 (in experiment [1] (setting [2]); in the experiment with Human rhinovirus 1B (setting [3])) was less than 3000 nM throughout.

Regarding `C#C[C@@]1(O)[C@H](O)[C@@H](CO)O[C@H]1n1cnc2c(N)nc(F)nc21` [Compound 4, (2R,3R,4R,5R)-2-(6-amino-2-fluoro-9H-purin-9-yl)-3-ethynyl-5-(hydroxymethyl)tetrahydrofuran-3,4-diol], the EC50 in experiment [1] (setting [2]) is more than 100000 nM; in the experiment with Human rhinovirus 1B (setting [3]), 3000 to 30000 nM.

Consider `C#C[C@]1(O)[C@H](n2ccc3c(N)ncnc32)O[C@](F)(CO)[C@H]1O` [Compound 6, (2S,3S,4R,5R)-5-(4-amino-7H-pyrrolo[2,3-d]pyrimidin-7-yl)-4-ethynyl-2-fluoro-2-(hydroxymethyl)tetrahydrofuran-3,4-diol], for which the EC50 is 3000 to 30000 nM in experiment [1] (setting [2]) and less than 3000 nM with Human rhinovirus 1B (setting [3]).

Regarding `C#C[C@]1(O)[C@H](n2cc(C(N)=O)c3c(N)ncnc32)O[C@](F)(CO)[C@H]1O` [Compound 10, 4-amino-7-((2R,3R,4S,5S)-3-ethynyl-5-fluoro-3,4-dihydroxy-5-(hydroxymethyl)tetrahydrofuran-2-yl)-7H-pyrrolo[2,3-d]pyrimidine-5-carboxamide], the EC50 in experiment [1] (setting [2]) is 3000 to 30000 nM; in the experiment with Human rhinovirus 1B (Rhinovirus A), more than 100000 nM.

`C[C@@]1(O)[C@H](O)[C@@H](CO)O[C@H]1n1cnc2c(N)nc(F)nc21` [Compound 16]: the EC50 in experiment [1] (setting [2]) was more than 100000 nM; in the experiment with Human rhinovirus 1B (setting [3]), 3000 to 30000 nM.

Take `C#C[C@@]1(O)[C@H](O)[C@@H](CO)O[C@H]1c1cnc2c(N)ncnn12` [Compound 27, (2S,3R,4R,5R)-2-(4-aminoimidazo[2,1-f][1,2,4]triazin-7-yl)-3-ethynyl-5-(hydroxymethyl)tetrahydrofuran-3,4-diol]: the EC50 (in experiment [1] (setting [2]); in the experiment on Human rhinovirus 1B (setting [3])) was less than 3000 nM throughout.

As to `C#C[C@]1(OC(C)=O)[C@H](n2cnc3c(N)ncnc32)O[C@](F)(COC(C)=O)[C@H]1OC(C)=O` [Compound 34, (2S,3S,4R,5R)-2-(acetoxymethyl)-5-(6-amino-9H-purin-9-yl)-4-ethynyl-2-fluorotetrahydrofuran-3,4-diyldiacetate], the EC50 was less than 3000 nM in experiment [1] (setting [4]) and less than 3000 nM in the experiment with Human rhinovirus 1B (HeLa-OHIO cells, 33° C.).

Regarding `C#C[C@]1(O)[C@H](n2cnc3c(N)ncnc32)O[C@](F)(COC(=O)CC)[C@H]1OC(=O)CC` [Compound 36], the EC50 (in experiment [1] (setting [2]); with Human rhinovirus 1B (setting [3])) was less than 3000 nM each time.

In the case of `C#C[C@]1(O)[C@H](n2cnc3c(N)ncnc32)O[C@](F)(COC(=O)CCC)[C@H]1OC(=O)CCC` [Compound 37, (2S,3S,4R,5R)-5-(6-amino-9H-purin-9-yl)-2-((butyryloxy)methyl)-4-ethynyl-2-fluoro-4-hydroxytetrahydrofuran-3-ylbutyrate], the EC50 (in experiment [1] (setting [2]); in the experiment with Human rhinovirus 1B (setting [3])) was less than 3000 nM throughout.

Take `C#C[C@]1(OC(=O)CC)[C@H](n2cnc3c(N)ncnc32)O[C@](F)(COC(=O)CC)[C@H]1OC(=O)CC` [Compound 38, (2S,3S,4R,5R)-5-(6-amino-9H-purin-9-yl)-4-ethynyl-2-fluoro-2-((propionyloxy)methyl)tetrahydrofuran-3,4-diyldipropionate]: the EC50 (in experiment [1] (setting [2]); in the experiment on Human rhinovirus 1B (setting [3])) was less than 3000 nM throughout.

With `C#C[C@]1(O)[C@H](n2cnc3c(N)ncnc32)O[C@](F)(CO)[C@H]1OC(=O)CCCCCCCCC` [Compound 39, (2S,3S,4R,5R)-5-(6-amino-9H-purin-9-yl)-4-ethynyl-2-fluoro-4-hydroxy-2-(hydroxymethyl)tetrahydrofuran-3-yldecanoate], the EC50 (in experiment [1] (setting [2]); in the experiment with Human rhinovirus 1B (setting [3])) was less than 3000 nM throughout.

With `C#C[C@]1(O)[C@H](n2cnc3c(NC(=O)OC(C)(C)C)ncnc32)O[C@](F)(COC(c2ccccc2)(c2ccccc2)c2ccc(OC)cc2)[C@H]1OC(=O)CCCCCCC` [Compound 40], the EC50 in experiment [1] (setting [4]) was less than 3000 nM; with Human rhinovirus 1B (HeLa-OHIO cells, 33° C.), less than 3000 nM.

`C#C[C@]1(O)[C@H](n2cnc3c(N)ncnc32)O[C@](F)(CO)[C@H]1OC(=O)[C@@H](N)C(C)C` [Compound 41, (2S,3S,4R,5R)-5-(6-amino-9H-purin-9-yl)-4-ethynyl-2-fluoro-4-hydroxy-2-(hydroxymethyl)tetrahydrofuran-3-yl L-valinate]: the EC50 (in experiment [1] (setting [2]); in the experiment with Human rhinovirus 1B (setting [3])) was less than 3000 nM in each case.

For the molecule `C#C[C@]1(O)[C@H](n2cnc3c(NC(=O)OC(C)(C)C)ncnc32)O[C@](F)(COC(c2ccccc2)(c2ccccc2)c2ccc(OC)cc2)[C@H]1OC(=O)CCCCCCCCCCC` [Compound 42, (2S,3S,4R,5R)-5-(6-((tert-butoxycarbonyl)amino)-9H-purin-9-yl)-4-ethynyl-2-fluoro-4-hydroxy-2-(((4-methoxyphenyl)diphenylmethoxy)methyl)tetrahydrofuran-3-yl-dodecanoate], the EC50 (in experiment [1] (setting [2]); with Human rhinovirus 1B (setting [3])) was less than 3000 nM each time.

Take `C#C[C@]1(O)[C@H](n2cnc3c(N)ncnc32)O[C@](F)(COC(=O)CCCCCCCCC)[C@H]1O` [Compound 44, ((2S,3S,4R,5R)-5-(6-amino-9H-purin-9-yl)-4-ethynyl-2-fluoro-3,4-dihydroxytetrahydrofuran-2-yl)methyldecanoate]: the EC50 (in experiment [1] (setting [2]); in the experiment with Human rhinovirus 1B (setting [3])) was less than 3000 nM throughout.

On to `C#C[C@]1(O)[C@H](n2cnc3c(N)ncnc32)O[C@](F)(CO)[C@H]1OC(=O)NCCC` [Compound 49, (2S,3S,4R,5R)-5-(6-amino-9H-purin-9-yl)-4-ethynyl-2-fluoro-4-hydroxy-2-(hydroxymethyl)tetrahydrofuran-3-ylpropylcarbamate], for which the EC50 in experiment [1] (setting [4]) was 30000 to 100000 nM; with Human rhinovirus 1B (HeLa-OHIO cells, 33° C.) it was 3000 to 30000 nM.

On to “(2S,3S,4R,5R)-5-(4-amino-5-fluoro-7H-pyrrolo[2,3-d]pyrimidin-7-yl)-4-ethynyl-2-fluoro-2-(hydroxymethyl)tetrahydrofuran-3,4-diol [Compound 31]”, for which the EC50 in experiment [1] (setting [4]) was less than 3000 nM; in the experiment on Human rhinovirus 1B (HeLa-OHIO cells, 33° C.), less than 3000 nM.

The record behind these values is patent US20190169221A1, “SUBSTITUTED NUCLEOSIDES, NUCLEOTIDES AND ANALOGS THEREOF” (Janssen BioPharma, Inc., priority 2016, published 2019).
